This is an account of results in patent US10111847B2, “Compounds and methods for modulating vascular injury” (The Regents of the University of California, priority 2012, dated 2018).

The subject of one assay is human sv-VSMCs. Nature of the assay: PDGF-BB induced VSMC cell-shape measurement (phalloidin). Conditions: 100 nM, 30 min; PDGF-BB 50 ng/ml 1 hr. It is filed as cell-based. The procedure:
Cells were cultured in 8-well chamber slides (3,000 cells/well) and pretreated with MaR-1 or vehicle (0.1% ethanol) for 30 min followed by the addition of PDGF-BB (50 ng/ml) for 1 h. Cells were washed twice in phosphate-buffered saline (PBS), permeabilized with 0.1% Triton-X, and then fixed in 4% formaldehyde, labeled with Alexa Fluor 568 phalloidin (Invitrogen) and DAPI, and then mounted on glass slides. Cell area and length/width ratio were determined by outlining the cell dimensions and computing 2-dimensional area using GIMP image analysis software (GIMP, freeware; www.gimp.org). For each condition, dimensions were measured from 30 randomly selected cells, and all treatment conditions were performed in triplicate.
Human sv-VSMCs cultured in chamber slides were treated with 7S-Maresin-1 at 100 nM or vehicle for 30 min, followed by PDGF-BB, 50 ng/ml for 1 hr. Cells were then fixed, permeabilized and stained with phalloidin (Life technologies).
FIGS. 21A-21E. (A) Vehicle Control. (B) PDGF-BB, 50 ng/ml. (C) 7S-Maresin-1, 100 nm+PDGF-BB, 50 ng/ml. (D) 7S-Maresin-1, 100 nm+pertussis toxin, 10 ng/ml+PDGF-BB, 50 ng/ml. (E) Graphical summary of N=4 per group. P≤0.01, One-way ANOVA with Dunnett's post hoc test. *P<0.05 compared to PDGF-BB (50 ng/ml). †: P≤0.05 compared to PDGF-BB alone, unpaired t-test. ‡: P≤0.05 compared to PDGF-BB+7S-Maresin-1, unpaired t-test. Error bars: SEM.

The next assay relates to VSMC. Description: TNF-α-induced superoxide production (DHE) in VSMC (RvD1). The following applies: 10 and 100 nM; TNF-α 10 ng/ml 4 hours. It is filed as cell-based, human. The procedure:
RvD1. Cells are seeded and grown on chamber slides at a density of 10,000 cells per chamber for 2 days, followed by treatment with 10 ng/ml TNF-α with or without RvD1 (10 and 100 nM) in serum-free media for 4 hours. After incubation cells are incubated with DHE (5 μmol/L, Invitrogen) in PBS for 30 minutes at 37° C. in a humidified chamber protected from light. DAPI nuclear counter staining is utilized. For frozen section 30-μm-thick sections are incubated with DHE (10 μmol/L) in PBS for 30 minutes at the same condition described above. Fluorescence was detected with TRITC filter allowing the detection of the DHE emission wavelength of 590-620 nm. The fluorescence lamp gain is standardized for all images and analyses. Fluorescence quantitation is performed using ImageJ analysis software (National Institute of Health, Bethesda, Md.). For VSMC the fluorescence intensity is determined for the DHE-stained control cells (no treatment control) from each experimental group and then individual treated cells from the same group are normalized to the corresponding value. For frozen sections the fluorescence intensity is determined for the DHE-stained control vessels (uninjured abdominal aorta) from each experimental group and then individual treated vessels from the same group are normalized to the corresponding value. […]

In a further assay the test system is ICAM-1, IL-1β, and IL-1α. Description: Gene expression in VSMC in presence or absence of pertussis toxin (PTX). It counts as cell-based, human. Conditions: RvD2 10 nM; PTX 100 ng/ml; TNF-α. As for the experimental part:
Cells are plated onto 6-well plates at 100% confluency in DMEM plus 10% FBS and allowed to attached overnight. Cells are then made quiescent by placing in serum-free media for 48-72 hours prior to start of experiments. Cells are treated with or without RvD1 or RvD2 at the indicated concentrations for one hour followed by co-incubation with cytokine (TNF-α 10 ng/ml) for up to 18 hours. In a separate set of experiments to examine the role of G-protein receptors, VSMCs are exposed to TNF-α and RvD2 (10 nM) as described above, in the presence or absence of pertussis toxin (PTX 100 ng/ml). Total RNA from rabbit sample or cells is isolated with PureLink RNA Mini kit (Ambion Life Technologies, Carlsbad, Calif.) with RNase-free DNase treatment according to manufacturer's protocol. One microgram of total RNA (from either VSMC or rabbit tissue) is used to generate cDNA using High Capacity cDNA Reverse Transcription Kit (Applied Biosystems, Foster City, Calif.) for subsequent RT-PCR reactions. Sybrgreen Amplified DNA is detected by incorporation SYBR Green (Qiagen, Germantown, Md.). […]
FIG. 9: Effects of RvD2 on gene expression in VSMC are sensitive to pertussis toxin (PTX). […] RNA was harvested and analyzed for the expression of ICAM-1, IL-1β, and IL-1α by qPCR (n=3, results are mean±SEM, **P<0.01, *P<0.05, one-way ANOVA followed by Bonferroni's post hoc test).

Assay [1] deals with Stat1, C/EBP, SMAD, SATB1, EGR. Description: Transcription factor multiplex array in TNF-α-stimulated VSMC. It is filed as cell-based, human. The following applies: 10 nM; TNF-α 10 ng/ml 18 hours. The procedure: Cells are plated onto 96-well plates and treated with 10 ng/ml TNF-α in the presence or absence of 10 nM RvD2 for 18 hours and then nuclear extracts are prepared. Transcription factor profiling is performed using a multiplex array according to the manufacturer's instructions (Signosis Inc., Sunnyvale, Calif.).
FIG. 11: RvD1 and RvD2 modulate activity of multiple transcription factors in TNF-α-stimulated VSMC. VSMCs were treated with TNF-α (10 ng/ml) for 18 hours and nuclear extracts were prepared. Transcription factor profiling was performed using a multiplex array.

For `CC/C=C\C/C=C\C[C@H](O)\C=C/C=C/C=C/[C@@H](O)C/C=C\CCC(=O)O` [7S-Maresin-1, 7S,14R-dihydroxydocosa-4Z,8E,10Z,12Z,16Z,19Z-hexaenoic acid], the “PDGF-BB induced vascular smooth muscle cell shape change” value in the assay with human sv-VSMCs is reported as “Alters”.
For the compound `CC/C=C\C[C@H](O)/C=C/C=C\C=C\C=C\[C@@H](O)[C@@H](O)C/C=C\CCC(=O)O` [RvD1, Resolvin D1], in the assay with VSMC, the “TNF-α-induced superoxide production in VSMC” value was “significantly reduced”.
With `CC/C=C\C[C@H](O)[C@H](O)/C=C/C=C/C=C\C=C\[C@@H](O)C/C=C\CCC(=O)O` [RvD2, resolvin D2], the “effect of pertussis toxin on inhibition of ICAM-1, IL-1β, and IL-1α gene expression” value in the assay on ICAM-1, IL-1β, and IL-1α is “abrogation of the inhibitory effects”. Also, the “transcription factor activity (Stat1, C/EBP, SMAD, SATB1, EGR) vs TNF-α-stimulated controls” value in assay [1] was “significantly downregulated”.
